Bounds are passed on as bounds.

This test addresses T1, Zcchc11 enzyme (Homo sapiens, UniProt Q5TAX3).
T1 construct: made in house; host or cells: HEK293 cells (Zcchc11); E. coli Rosetta II (LIN28A)
T1 sequence (Q5TAX3 212-1420): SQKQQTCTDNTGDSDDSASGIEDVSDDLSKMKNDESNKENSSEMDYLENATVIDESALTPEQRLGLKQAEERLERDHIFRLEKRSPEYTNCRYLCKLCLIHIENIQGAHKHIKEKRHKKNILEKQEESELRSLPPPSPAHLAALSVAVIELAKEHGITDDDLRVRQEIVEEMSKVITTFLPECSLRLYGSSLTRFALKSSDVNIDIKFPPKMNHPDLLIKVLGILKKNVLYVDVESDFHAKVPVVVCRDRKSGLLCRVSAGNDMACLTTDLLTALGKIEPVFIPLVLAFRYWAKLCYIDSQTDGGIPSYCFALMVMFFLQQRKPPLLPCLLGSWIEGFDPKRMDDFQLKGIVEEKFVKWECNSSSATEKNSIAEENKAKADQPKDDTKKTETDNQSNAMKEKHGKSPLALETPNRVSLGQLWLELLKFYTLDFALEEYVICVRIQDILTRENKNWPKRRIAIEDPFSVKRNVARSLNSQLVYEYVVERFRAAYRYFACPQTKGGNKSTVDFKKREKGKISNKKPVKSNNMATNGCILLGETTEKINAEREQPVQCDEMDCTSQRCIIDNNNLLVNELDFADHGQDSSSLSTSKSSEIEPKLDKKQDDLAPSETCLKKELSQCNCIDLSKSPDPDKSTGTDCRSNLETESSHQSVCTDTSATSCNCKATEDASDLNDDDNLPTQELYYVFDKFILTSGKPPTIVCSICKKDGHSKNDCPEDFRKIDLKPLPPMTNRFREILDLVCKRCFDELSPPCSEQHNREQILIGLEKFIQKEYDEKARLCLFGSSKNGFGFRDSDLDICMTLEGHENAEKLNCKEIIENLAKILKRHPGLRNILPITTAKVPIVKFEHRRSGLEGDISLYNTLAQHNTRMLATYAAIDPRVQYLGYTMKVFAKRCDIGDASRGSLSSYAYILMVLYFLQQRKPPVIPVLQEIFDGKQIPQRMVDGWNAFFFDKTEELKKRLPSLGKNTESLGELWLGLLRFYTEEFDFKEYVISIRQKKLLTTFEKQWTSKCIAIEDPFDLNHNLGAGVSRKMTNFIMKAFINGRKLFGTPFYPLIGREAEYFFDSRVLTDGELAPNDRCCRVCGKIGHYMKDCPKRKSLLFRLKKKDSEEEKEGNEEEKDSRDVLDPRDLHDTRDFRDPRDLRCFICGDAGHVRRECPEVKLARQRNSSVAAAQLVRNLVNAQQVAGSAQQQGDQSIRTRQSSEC
The experiment in a line: TUTase assay (Zcchc11 assay, Lin28a-dependent polyuridylation of pre-let-7). It is filed as biochemical. The settings on record: Lin28a-dependent Zcchc11 (Z11) TUTase activity; read-out: Potency Lin28a-dep Z11 IC50. In a few lines: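 LIN28A (10 nM) in pH 7.3 HEPES/KCl/MgCl2/DTT buffer was mixed with serially diluted compound, then 0.2 nM truncated human Zcchc11 and 2 nM labeled pre-let-7 were added for 30 min at room temperature. UTP (5 uM) and quench probe (4 nM) then started the reaction. Linear early rates gave IC50 values.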
Consider `COc1ccc(Cl)c(OC[C@H]2C[C@H]3C[C@H]3N2c2cc3c(cc2F)c(=O)c(C(=O)O)cn3-c2ccnc(N)c2)n1` [Compound 199, 1-(2-aminopyridin-4-yl)-7-((1R,3R,5R)-3-(((3-chloro-6-methoxy-pyridin-2-yl)oxy)methyl)-2-azabicyclo [3.1.0]hexan-2-yl)-6-fluoro-4-oxo-1,4-dihydro-quinoline-3-carboxylic acid], for which the IC50 is at most 1000 nM.

Regarding `CO/N=C1\C[C@H](COc2nc(OC)ccc2Cl)N(c2cc3c(cc2Cl)c(=O)c(C(=O)O)cn3-c2ccc(N3CC(N(C)C)C3)nc2)C1` [Compound 200, (R,E)-6-chloro-7-(2-(((3-chloro-6-methoxy-pyridin-2-yl)oxy)methyl)-4-(methoxyimino)pyrrolidin-1-yl)-1-(6-(3-(dimethyl-amino)azetidin-1-yl)pyridin-3-yl)-4-oxo-1,4-dihydro-quinoline-3-carboxylic acid], the IC50 is at most 1000 nM.

As to `COc1ccc(Cl)c(OC[C@H]2C[C@@H]3C[C@@H]3N2c2cc3c(cc2F)c(=O)c(C(=O)O)cn3-c2ccc(N3CC(N(C)C)C3)nc2)n1` [Compound 201, 7-((1S,3R,5S)-3-(((3-chloro-6-methoxy-pyridin-2-yl)oxy)methyl)-2-azabicyclo [3.1.0]hexan-2-yl)-1-(6-(3-(dimethyl-amino)azetidin-1-yl)pyridin-3-yl)-6-fluoro-4-oxo-1,4-dihydro-quinoline-3-carboxylic acid], the IC50 is at most 1000 nM.

Regarding `COc1ccc(Cl)c(OCC2C3CC(C3)N2c2cc3c(cc2Cl)c(=O)c(C(=O)O)cn3-c2ccc(N3CC(N(C)C)C3)nc2)n1` (stereo not drawn) [Compound 202, 6-chloro-7-(3-(((3-chloro-6-methoxy-pyridin-2-yl)oxy)methyl)-2-azabicyclo [2.1.1]hexan-2-yl)-1-(6-(3-(dimethyl-amino)azetidin-1-yl)pyridin-3-yl)-4-oxo-1,4-dihydro-quinoline-3-carboxylic acid], the IC50 was at most 1000 nM.

Turning to `CN(C)C1CN(c2ccc(-n3cc(C(=O)O)c(=O)c4cc(Cl)c(N5CCC[C@@H]5COc5nc6nc[nH]c6cc5Cl)cc43)cn2)C1` [Compound 204, (R)-6-chloro-7-(2-(((6-chloro-1H-imidazo [4,5-b]pyridin-5-yl)oxy)methyl)pyrrolidin-1-yl)-1-(6-(3-(dimethyl-amino)azetidin-1-yl)pyridin-3-yl)-4-oxo-1,4-dihydro-quinoline-3-carboxylic acid], the IC50 was at most 1000 nM.

Turning to `COc1ccc(Cl)c(OC[C@H]2CCCN2c2cc3c(cc2C)c(=O)c(C(=O)O)cn3-c2ccc(N3CC(N(C)C)C3)nc2)n1` [Compound 206, (R)-7-(2-(((3-chloro-6-methoxy-pyridin-2-yl)oxy)methyl)pyrrolidin-1-yl)-1-(6-(3-(dimethyl-amino)azetidin-1-yl)pyridin-3-yl)-6-methyl-4-oxo-1,4-dihydro-quinoline-3-carboxylic acid], the IC50 is at most 1000 nM.

Consider `CN(C)CCn1cc(-n2cc(C(=O)O)c(=O)c3cc(C#N)c(N4CCC[C@@H]4COc4ncccc4Cl)cc32)cn1` [Compound 207], for which the IC50 is at most 1000 nM.

As to `Cc1cccnc1OC[C@H]1CCCN1c1cc2c(cc1F)c(=O)c(C(=O)O)cn2-c1ccc(N)nc1` [Compound 208, (R)-1-(6-aminopyridin-3-yl)-6-fluoro-7-(2-(((3-methylpyridin-2-yl)oxy)methyl)pyrrolidin-1-yl)-4-oxo-1,4-dihydro-quinoline-3-carboxylic acid], the IC50 was at most 1000 nM.

For `Nc1cc(-n2cc(C(=O)O)c(=O)c3cc(Cl)c(N4CCC[C@@H]4COc4ncccc4Cl)cc32)ccn1` [Compound 209, (R)-1-(2-aminopyridin-4-yl)-6-chloro-7-(2-(((3-chloropyridin-2-yl)oxy)methyl)pyrrolidin-1-yl)-4-oxo-1,4-dihydro-quinoline-3-carboxylic acid], the IC50 was at most 1000 nM.

As for `Cc1cccnc1OC[C@H]1CCCN1c1cc2c(cc1Cl)c(=O)c(C(=O)O)cn2-c1ccc(N)nc1` [Compound 210, (R)-1-(6-aminopyridin-3-yl)-6-chloro-7-(2-(((3-methylpyridin-2-yl)oxy)methyl)pyrrolidin-1-yl)-4-oxo-1,4-dihydro-quinoline-3-carboxylic acid], the IC50 is at most 1000 nM.

As to `O=C(O)c1cn(-c2cnccn2)c2cc(N3CCCCC3COc3ccccn3)c(Cl)cc2c1=O` (stereo not drawn) [Compound 211, 6-Chloro-4-oxo-1-(pyrazin-2-yl)-7-{2-[(pyridin-2-yloxy)methyl]piperidin-1-yl}quinoline-3-carboxylic acid], the IC50 lay in the range of 1000 to 10000 nM.

Turning to `Cc1cccnc1OC[C@H]1CCCN1c1cc2c(cc1Cl)c(=O)c(C(=O)O)cn2-c1cnccn1` [Compound 212, 6-Chloro-7-[(2R)-2-{[(3-methylpyridin-2-yl)oxy]methyl}pyrrolidin-1-yl]-4-oxo-1-(pyrazin-2-yl)quinoline-3-carboxylic acid], the IC50 was at most 1000 nM.

Consider `O=C(O)c1cn(-c2cnccn2)c2cc(N3CCC[C@@H]3COc3ncccc3F)c(Cl)cc2c1=O` [Compound 213, 6-Chloro-7-[(2R)-2-{[(3-fluoropyridin-2-yl)oxy]methyl}pyrrolidin-1-yl]-4-oxo-1-(pyrazin-2-yl)quinoline-3-carboxylic acid], for which the IC50 is at most 1000 nM.

Take `Nc1ccc(-n2cc(C(=O)O)c(=O)c3cc(Cl)c(N4CCC[C@@H]4COc4ncccc4F)cc32)cn1` [Compound 214, 1-(6-Aminopyridin-3-yl)-6-chloro-7-[(2R)-2-{[(3-fluoropyridin-2-yl)oxy]methyl}pyrrolidin-1-yl]-4-oxoquinoline-3-carboxylic acid]: the IC50 was at most 1000 nM.

For `O=C(O)c1cn(-c2ccc3c(c2F)CCN3)c2cc(N3CCC[C@@H]3COc3ccccn3)c(F)cc2c1=O` [Compound 216, 6-Fluoro-1-(4-fluoro-2,3-dihydro-1H-indol-5-yl)-4-oxo-7-[(2R)-2-[(pyridin-2-yloxy)methyl]pyrrolidin-1-yl]quinoline-3-carboxylic acid], the IC50 was at most 1000 nM.

Regarding `N#Cc1cc2c(=O)c(C(=O)O)cn(-c3ccc(N)nc3)c2cc1N1CCC[C@@H]1COc1ncccc1F` [Compound 217], the IC50 is at most 1000 nM.

On to `COCCN(C)C1CN(c2ccc(-n3cc(C(=O)O)c(=O)c4cc(C#N)c(N5CCC[C@@H]5COc5ncccc5Cl)cc43)cn2)C1` [Compound 218, 7-[(2R)-2-[[(3-chloropyridin-2-yl)oxy]methyl]pyrrolidin-1-yl]-6-cyano-1-(6-[3-[(2-methoxyethyl) (methyl)amino]azetidin-1-yl]pyridin-3-yl)-4-oxoquinoline-3-carboxylic acid], for which the IC50 was at most 1000 nM.

Turning to `CN(C)C1CN(c2ccc(-n3cc(C(=O)O)c(=O)c4cc(Cl)c(N5CCC5COc5ccccn5)cc43)cn2)C1` (stereo not drawn) [Compound 219, 6-chloro-1-[6-[3-(dimethyl-amino)azetidin-1-yl]pyridin-3-yl]-4-oxo-7-[2-[(pyridin-2-yloxy)methyl]azetidin-1-yl]quinoline-3-carboxylic acid], the IC50 is 1000 to 10000 nM.

Turning to `CN(C)C1CN(c2ccc(-n3cc(C(=O)O)c(=O)c4cc(C#N)c(N5C(=O)CC[C@@H]5COc5ncccc5Cl)cc43)cn2)C1` [Compound 220, 7-[(2R)-2-[[(3-chloropyridin-2-yl)oxy]methyl]-5-oxopyrrolidin-1-yl]-6-cyano-1-[6-[3-(dimethyl-amino)azetidin-1-yl]pyridin-3-yl]-4-oxoquinoline-3-carboxylic acid], the IC50 was 10000 to 50000 nM.

With `CN(C)C1CN(c2ccc(-n3cc(C(=O)O)c(=O)c4cc(Cl)c(N5CC6CC5(COc5ncccc5Cl)C6)cc43)cn2)C1` [Compound 221, 6-chloro-7-(1-[[(3-chloropyridin-2-yl)oxy]methyl]-2-azabicyclo [2.1.1]hexan-2-yl)-1-[6-[3-(dimethyl-amino)azetidin-1-yl]pyridin-3-yl]-4-oxoquinoline-3-carboxylic acid], the IC50 lay in the range of 1000 to 10000 nM.

Turning to `CN(C)C1CN(c2ccc(-n3cc(C(=O)O)c(=O)c4cc(F)c(N5CCC[C@@H]5COc5ncccc5Cl)cc43)cn2)C1` [Compound 222, 7-[(2R)-2-[[(3-chloropyridin-2-yl)oxy]methyl]pyrrolidin-1-yl]-1-[6-[3-(dimethyl-amino)azetidin-1-yl]pyridin-3-yl]-6-fluoro-4-oxoquinoline-3-carboxylic acid], the IC50 was at most 1000 nM.

As a reminder, the IC50 is the concentration at which inhibition is half-maximal.

These data come from patent publication US12662491B2 (Redona Therapeutics, Inc., priority 2020, dated 2026).
